These results are taken from patent publication US7767854B2, “N-substituted phenylacetamide derivative and pharmaceutical composition containing the same” (Dainippon Sumitomo Pharma Co., Ltd., priority 2005, dated 2010).

A short description of series [1]: Analgesic effect of prior-art compounds (background statement).
Series [2] concerns Slc: Hartley male guinea-pigs. Description: Skin sensitization test (Adjuvant and Patch Test, allergenic potency). The format is in vivo, guinea-pig. The conditions noted are these: 1% solution patches, FCA pre-treatment, observed 24 and 48 hours after initiation. How it is done:
Experiment 3. Skin Sensitization Test (Evaluation of Allergenic Potency)
The purpose of the present experiment is to investigate if each administered compound of the invention may induce allergic contact dermatitis. In detail, the test was carried out using Freund's complete adjuvant (FCA) according to the Adjuvant and Patch Test [Sato, et al., Contact Dermatitis, 7, 225-237 (1981)], which is described in “Description of Guideline on Nonclinical Studies of Drugs (Iyakuhin Hirinshou-shiken Guideline Kaisetsu), Chapter 8, P.72-76, Skin sensitization test” [edited by the Ministry of Health and Welfare, Pharmaceutical Affairs Bureau, Yakuji-Nippou-sha (1997)]. Slc: Hartley male guinea-pigs were used for the test. As a test compound, each the compound of the invention and DNCB (1-chloro-2,4-dinitrobenzene) as a positive control drug were dissolved in 70% ethanol/water solution and were administered to the animals. The 70% ethanol/water solution was used as vehicle solvent (reference).
In detail, after FCA emulsion was intradermally administered around the shaved back part of the guinea-pig as a pre-treatment, each patch containing 1% test compound solution or reference (solvent) solution was closedly attached once a day for consecutive 3 days in total (Primary Sensitization). On 7th day after the Primary Sensitization, 10% sodium lauryl sulfate ointment was openly applied at the same part for 24 hours, and then each patch containing 1% test compound solution or reference (solvent) solution was closedly attached again for 48 hours (Second Sensitization). 14 days after the Second Sensitization treatment, each test compound (maximum concentration: 1%) was applied for 24 hours using patch in the same manner (initiation). 24 and 48 hours after the application, the reaction (erythema, edema) on the applied skin part was observed and was scored (0-3) based on the criteria of Magnusson and Kligman [J. Invest. Dermatol., 52, 268-276 (1969)], and then the degree of skin sensitization induced by each of compound was evaluated.

Another series deals with male Std: Wistar rats. Description: Pain test by plantar thermal stimuli (plantar test). In kind it is in vivo. The conditions noted are these: Rattus norvegicus, 4 h, 50 μl of 0.03% (W/V) solution i.pl. into right hind-paw; 4 hours after administration; cut-off 25 seconds; read-out: % MPE (percent maximum possible effect, withdrawal latency). How it is done:
Experiment 1: Pain Test by Plantar Thermal Stimuli (Plantar Test)
In the present experiment, the analgesic effect of the compounds of the invention was evaluated by the measurements of withdrawal latency to noxious thermal stimuli, according to the methods of Hargreaves, et al., [Pain, 32, 77-88 (1988)] and Field, et al., [J. Pharmacol. Exp. Ther., 282, 1242-1246 (1997)].
In detail, the experiment was carried out using male Std: Wistar rats (4 rats/group; body weight, 170-220 g) and a plantar test device (Model 7370, Ugo Basile) with infrared beam as a heat source. The rat was put into an experimental cage that is an acrylic box whose bottom is made of glass and was habituated therein. Then, the infrared beam was radiated to the plantar surface of right hind-paw thereof through the floor glass, and the withdrawal latency was measured every 5 minutes, 3 times. The intension of the infrared beam was adjusted so that the pre-drug administration latency was about 10 seconds. The cut-off time was set at 25 seconds in order to prevent a paw burn. The average of the latencies was calculated, and then it was defined as the value of the pre-drug administration latency of the test compound.
Next day, 50 μl of each solution of the test compounds [the compounds of the invention, the compounds of the comparative Examples and capsaicin (Sigma, U.S.A.)] or 50 μl of vehicle solvent (reference) was given to a right hind-paw of the rat by intraplantar injection (i. pl.) using a micro-syringe. The test compound was dissolved in a saline solution containing 10% Tween 80 (Sigma, U.S.A) and 10% ethanol to give a 0.03% (W/V) solution. The saline solution containing 10% Tween 80 and 10% ethanol was used as reference. Four hours after i.pl. administration of each the test compound or the reference to the rats, the experiment mentioned above was carried out, and then the post-drug administration latency was measured. The analgesic effects thereof were calculated with the following formula, which was known as a percent maximum possible effect (% MPE). % MPE=[(the value of post-drug latency−the value of pre-drug latency)/(25*−the value of pre-drug latency)]×100 *: cut-off time

A further series has as its system male Std:ddY mice. Put plainly: Study for irritancy (eye-wiping test). The format is in vivo, mouse. How it is done:
Experiment 2: Study for Irritancy (Eye-Wiping Test)
In this experiment, we examined the irritancy of the compounds of the invention. The experiment was carried out according to Jancso, et al., [Acta. Physiol. Acad. Sci. Hung., 19, 113-131 (1961)] and Szallasi, et al., [Brit. J. Pharmacol., 119, 283-290 (1996)]. In more detail, the compounds of the invention were dissolved in a physiological saline solution containing 5% Tween 80 and 5% ethanol to prepare each 2 different concentrations (2 concentrations: 10 and 30 μg/ml). One drop of each the solution was dropped into an eye of male Std:ddY mice (5 […]/group; body weight, 20-30 g). The protective wiping behaviors with its front paws were counted for every one minute from 0 to 5 minutes after the administration. Then, the average counts in each one minute were calculated, and the maximum value among the averages was defined as the representative value. Using the saline solution containing […] and 5% ethanol as a vehicle solvent, the test mentioned above was also carried out.

The test system of another series is female CBA/JN mice. Put plainly: Skin sensitization test (Local Lymph Node Assay with BrdU). In kind it is in vivo, mouse. The conditions noted are these: 1 and 3% solutions in DMF on both auricles, 3 days. How it is done:
Experiment 4: Skin Sensitization Test (Local Lymph Node Assay)
The purpose of the present experiment is to investigate if each administered compound of the invention can induce allergic contact dermatitis. In detail, the skin sensitization effect of the compounds of the invention was examined using BrdU (bromodeoxyuridine) by LLNA (Local Lymph Node Assay).
In more detail, the test was carried out according to the method by Suda, A. et al. (Local lymph node assay with non-radioisotope alternative endpoints. J. Toxicol. Sci., 27(3):205-218, 2002). Namely, the compounds of the invention were dissolved in DMF (N,N-dimethylformamide) to prepare 1 and 3% solutions, which were applied to both auricles of female CBA/JN mice aged 9 weeks for consecutive 3 days (1st day to 3rd day)(25 μl/one-side ear, once a day)
As positive control drugs, DNCB (dinitrochlorobenzene, a potently sensitizing drug) and HCA (α-hexylcinnamaldehyde, a weakly sensitizing drug) were used. After the final application was finished (on 3rd day), ALZET Osmotic Pump containing 100 μl of 200 mg/mL BrdU (releasing rate: 0.5 μl/hour) was implanted into the ventral skin under pentobarbital anesthesia, and BrdU was exposed sustainedly. On 9th day from starting day to apply the compounds of the invention, the animals were euthanized by cervical dislocation, and parotid lymph nodes of both their ears were taken out. The nodes were weighed and homogenized in PBS to prepare a single cell suspension which was measured by a blood test device: ADVIA (Bayer) to count the number of the cells. Next, the cells were immunofluorescently stained with FITC-labeled anti-BrdU antibody using a BrdU Flow Kit (BD Biosciences), which were measured and analyzed using a flow cytometer: FACS Calibur (Becton Dickinson) to give BrdU-positive cell percentage. And then, the BrdU-positive cell percentage was multiplied by the number of the node cells to give the number of the BrdU-positive cells. Additionally, on each parameter, the average value for the test compound group was divided by the average value for the reference (solvent) group to give a stimulation Index (SI). We judged that the compound had skin sensitization activity when the SI of BrdU-positive cell number was 2 or more, in principle.

Turning to `COc1cc(CC(=O)NC2CCC(C)CC2)ccc1O` (stereo not shown), the analgesic effect entry in series [1] is “little analgesic effect”.

Consider `CCCCC1=CCC(NC(=O)Cc2ccc(O)c(OC)c2)CC1` (single isomer, unassigned; (+)) [Example 43, (+)-N-(4-butyl-3-cyclohexenyl)-2-(4-hydroxy-3-methoxyphenyl)acetamide], for which, in series [2], the “skin sensitization (erythema, edema score)” value is given as “no skin sensitization”.

With `CCCC=C1CCC(NC(=O)Cc2ccc(O)c(OC)c2)CC1` (single isomer, unassigned; (+)) [Example 45, (+)-N-(4-butylidenecyclohexyl)-2-(4-hydroxy-3-methoxyphenyl)acetamide], the change in vivo at 300 µg/mL in the series on male Std: Wistar rats was 73.9%. Moreover, in series [2], the “skin sensitization (erythema, edema score)” value is on record as “no skin sensitization”.

Turning to `CCCCC1=CCC(NC(=O)Cc2ccc(O)c(OC)c2)CC1` (single isomer, unassigned; (-)) [Example 44, (−)-N-(4-butyl-3-cyclohexenyl)-2-(4-hydroxy-3-methoxyphenyl)acetamide], in series [2], the “skin sensitization (erythema, edema score)” value is reported as “no skin sensitization”.

Take `CCCC=C1CCC(NC(=O)Cc2ccc(O)c(OC)c2)CC1` (single isomer, unassigned; (-)) [Example 46, (−)-N-(4-butylidenecyclohexyl)-2-(4-hydroxy-3-methoxyphenyl)acetamide]: the “skin sensitization (erythema, edema score)” value in series [2] was “no skin sensitization”.

Consider `COc1cc(CNC(=O)CCCC/C=C/C(C)C)ccc1O` [Capsaicin, (E)-8-methyl-N-vanillyl-6-nonenamide], for which, in the series with male Std: Wistar rats, the change in vivo at 300 µg/mL was determined as 39.2%. Also, the “Representative value of counts of protective wiping behaviors (max. counts, counts/min)” value with male Std:ddY mice (10 μg/ml, one drop into eye, 0 to 5 minutes) worked out at 20.0 counts/min. For the same compound, the “irritancy (protective wiping behaviors, in words)” value in the series on male Std:ddY mice (capsaicin 10 μg/ml, Example compounds up to 30 μg/ml) is “frequent protective wiping behaviors”.

In the case of `CCCCC1=CCC(NC(=O)Cc2ccc(O)c(OC)c2)CC1` (stereo not shown) [Example 1, N-(4-butyl-3-cyclohexenyl)-2-(4-hydroxy-3-methoxyphenyl)acetamide], the change in vivo at 300 µg/mL with male Std: Wistar rats worked out at 69.9%. Further, the “skin sensitization (SI of BrdU-positive cell number)” value in the series on female CBA/JN mice is on record as “weak skin sensitization”. Further, the “skin sensitization (erythema, edema score)” value in series [2] is “no skin sensitization”.

Take `CCCCC1CCC(NC(=O)Cc2ccc(O)c(OC)c2)CC1` (stereo not shown) [Example 2, N-(4-butylcyclohexyl)-2-(4-hydroxy-3-methoxyphenyl)acetamide]: the change in vivo at 300 µg/mL with male Std: Wistar rats stood at 81.4%. Also, the “skin sensitization (SI of BrdU-positive cell number)” value in the series on female CBA/JN mice is “weak skin sensitization”. Moreover, the “skin sensitization (erythema, edema score)” value in series [2] is recorded as “no skin sensitization”.

Regarding `CCCCC[C@H]1CC[C@@H](NC(=O)Cc2ccc(O)c(OC)c2)CC1` [Example 8], the change in vivo at 300 µg/mL in the series on male Std: Wistar rats was determined as 88.4%. Further, the “skin sensitization (SI of BrdU-positive cell number)” value in the series with female CBA/JN mice is given as “weak skin sensitization”.

As to `CCCC=C1CCC(NC(=O)Cc2ccc(O)c(OC)c2)CC1` (stereo not shown) [Example 10, N-(4-butylidenecyclohexyl)-2-(4-hydroxy-3-methoxyphenyl)acetamide], the change in vivo at 300 µg/mL in the series with male Std: Wistar rats was determined as 89.4%. The “skin sensitization (SI of BrdU-positive cell number)” value in the series with female CBA/JN mice is listed as “weak skin sensitization”.

Turning to `CC/C=C\[C@H]1CC[C@H](NC(=O)Cc2ccc(O)c(OC)c2)CC1` [Example 16], in the series with male Std: Wistar rats, the change in vivo at 300 µg/mL was determined as 94.1%. Besides, in the series on female CBA/JN mice, the “skin sensitization (SI of BrdU-positive cell number)” value is listed as “weak skin sensitization”. Moreover, the “skin sensitization (erythema, edema score)” value in series [2] was “no skin sensitization”.

For the compound `C/C=C\[C@H]1CC[C@H](NC(=O)Cc2ccc(O)c(OC)c2)CC1` [Example 22], the change in vivo at 300 µg/mL in the series with male Std: Wistar rats is 54.7%. Further, the “skin sensitization (SI of BrdU-positive cell number)” value with female CBA/JN mice is on record as “weak skin sensitization”. Further, the “skin sensitization (erythema, edema score)” value in series [2] is “no skin sensitization”.

In the case of `COc1cc(CC(=O)N[C@H]2CC[C@H](CCC(C)C)CC2)ccc1O` [Example 26, 2-(4-hydroxy-3-methoxyphenyl)-N-[trans-4-(3-methylbutyl)cyclohexyl]acetamide], in the series on male Std: Wistar rats, the change in vivo at 300 µg/mL is 96.3%. The “skin sensitization (SI of BrdU-positive cell number)” value in the series on female CBA/JN mice is reported as “weak skin sensitization”.

For `COc1cc(CC(=O)N[C@H]2CC[C@H](CCCC(C)C)CC2)ccc1O` [Example 27], the change in vivo at 300 µg/mL in the series with male Std: Wistar rats turned out to be 89.5%. Also, the “skin sensitization (SI of BrdU-positive cell number)” value in the series with female CBA/JN mice is “weak skin sensitization”. In addition, the “skin sensitization (erythema, edema score)” value in series [2] is “no skin sensitization”.

Take `CCCCCO[C@H]1CC[C@H](NC(=O)Cc2ccc(O)c(OC)c2)CC1` [Example 36]: in the series with male Std: Wistar rats, the change in vivo at 300 µg/mL was 50.5%. The “skin sensitization (SI of BrdU-positive cell number)” value in the series with female CBA/JN mice is “weak skin sensitization”.

Regarding `COc1cc(CC(=O)N[C@H]2CC[C@H](CC=C(C)C)CC2)ccc1O` [Example 42, 2-(4-hydroxy-3-methoxyphenyl)-N-[trans-4-(3-methyl-2-butenyl)cyclohexyl]acetamide], in the series with male Std: Wistar rats, the change in vivo at 300 µg/mL was determined as 85%. For the same compound, the “skin sensitization (SI of BrdU-positive cell number)” value with female CBA/JN mice is given as “weak skin sensitization”.
